Values quoted from earlier work as cited in patent US20060030550A1, “Pharmaceutical formulations” (priority 2004, published 2006).
Each block holds one molecule with its values, some of them ahead of it.

Key:
[1] = topically active steroid
[2] = test system: rhinoviruses
[3] = preclinical testing
[4] = R112 over placebo, recent study

bioavailability [1]: not readily bioavailable
Compound: C[C@@H]1C[C@H]2[C@@H]3CCC4=CC(=O)C=C[C@]4(C)[C@@]3(Cl)[C@@H](O)C[C@]2(C)[C@@]1(OC(=O)c1ccco1)C(=O)CCl [Mometasone Furoate]

Compound: Cc1cc(CCCOc2c(C)cc(-c3noc(C(F)(F)F)n3)cc2C)on1 [Pleconaril, 1,2,4-oxadiazole3-[3,5-Dimethyl-4-[3-(3-methyl-5-isoxazolyl)propoxy]phenyl]-5-(trifluoremethyl)]
activity against rhinoviruses [2]: active against rhinoviruses

Compound: Oc1cccc(Nc2ncc(F)c(Nc3cccc(O)c3)n2)c1 [R112]
symptoms most closely associated with chronic nasal congestion (e.g. stuffy nose) (R112 over placebo): improved
absolute difference over placebo [4]: 9%
relative improvement over placebo [4]: greater than 20%
improvement from baseline measurements (baseline = prior to drug initiation): up to 38%

Compound: O=c1ccn([C@@H]2O[C@H](COP(=O)(O)OP(=O)(O)OP(=O)(O)OP(=O)(O)OC[C@H]3O[C@@H](n4ccc(=O)[nH]c4=O)[C@H](O)[C@@H]3O)[C@@H](O)[C@H]2O)c(=O)[nH]1 [diquafosol]
secretions of natural tear components [3]: increased
